Experimental data as given in patent publication US20110230659A1, “CYCLOBUTYL PURINE DERIVATIVE, ANGIOGENESIS PROMOTING AGENT, LUMEN FORMATION PROMOTING AGENT, NEUROCYTE GROWTH PROMOTING AGENT, AND DRUG” (NATIONAL UNIVERSITY CORPORATION KAGAWA UNIVERSITY, priority 2008, published 2011).

What was measured:
ERK = ERK activation (phosphorylation) immunoblot in HUVEC; assay type: cell-based, human
Experimental: First, to a HuMedia-EB2 medium (Kurabo) to which 2 v/v % inactivated fetal bovine serum (FBS) had been added, 2-Cl—C.OXT-A was added so that its concentration became 100 μmol/l. Thus, a medium was prepared. Using the medium, human umbilical vein endothelial cells (HUVEC) were cultured for predetermined periods (0, 10, 20, 30, 45, and 60 minutes).
After the culture, cells were collected. The collected cells were lysed by adding a cell lysis buffer (SDS-lysis buffer) thereto, and heat-denatured at 95° C. for 5 minutes. The solubilized protein in an amount corresponding to 5 v/v % of the heat-denatured cell lysate was subjected to electrophoresis using 10% SDS-polyacrylamide gel, whereby the solubilized protein was transferred onto a nitrocellulose membrane (Amersham Biosciences). To 20 ml of TBS-T having the following composition, skim milk (Wako) was added so that its concentration became 5%, thus preparing a blocking solution. The resultant nitrocellulose membrane was immersed in the blocking solution and shaken at room temperature for 1 hour.
Primary antibodies shown below were diluted 1000-fold by adding them to 5% bovine serum albumin (Sigma)-containing TBS-T, thus preparing a primary antibody solution. The nitrocellulose membrane after being subjected to the blocking was immersed in the primary antibody solution, and shaken at room temperature for 1 hour. The resultant nitrocellulose membrane was immersed in the TBS-T and washed by being shaken for 10 minutes. This washing operation was carried out three times in total.
Secondary antibodies shown below were diluted 20000-fold by adding them to TBS-T, thus preparing a secondary antibody solution. The nitrocellulose membrane having undergone the reaction with the primary antibodies was immersed in the secondary antibody solution, and shaken at room temperature for 1 hour. The resultant nitrocellulose membrane was immersed in the TBS-T and washed by being shaken for 10 minutes. This washing operation was carried out three times in total.
The enzymes were visualized with SuperSignal (registered trademark) West Pico Chemiluminescent Substrate (Pierce), and detected by being exposed to RX—U X-ray film (FUJIFILM Corporation). From the detected bands, the respective phosphoenzymes and total enzymes were quantified using an NIH image software. Furthermore, the relative value (−fold) of each phosphoenzyme was calculated by substituting the measured value of the phosphoenzyme into the following equation (III).
Relative value(−fold)of phosphoenzyme=(B/D)/(A/C) (III)
In the present example, the effect of 2-Cl—C.OXT-A of Example 1 and C.OXT-G of Comparative Example 2 on the activation (phosphorylation) of ERK was examined. In the present example, the amount of each enzyme was measured and the relative value (−fold) of each phosphoenzyme was calculated in the same manner as in Example 3, except that: a medium to which 2-Cl—C.OXT-A had been added so as to achieve predetermined concentrations (0, 10 and 100 μmol/l) and a medium to which 100 μmol/l C.OXT-G had been added were used; the culture period after the addition was set to 20 minutes: as the primary antibodies, only an anti-phospho ERK polyclonal antibody (Catalog No. 9101, Cell Signaling Technology) and an anti-total ERK monoclonal antibody (Catalog No. 610408, BD Transduction Laboratory) were used; as the secondary antibody for ERK, a sheep HRP-labeled anti-mouse IgG antibody (Pierce) was used; and as a secondary antibody of pERK, a sheep HRP-labeled anti-rabbit IgG antibody (Pierce) was used.
In the present example, the effect of PD98059 as an MEK inhibitor on the ERK activation (phosphorylation) by 2-Cl—C.OXT-A used in Example 1 was examined. […]

[1] = system: human umbilical vein endothelial cells (HUVEC) and normal human dermal fibroblasts; experiment: Measurement of lumen formation (angiogenesis kit, CD31 immunostaining, lumen area); assay type: cell-based; conditions: for lumen formation promoting-activity for vascular endothelial cells: examined in the same manner as in Example 1
Experimental: The measurement of lumen formation was carried out in the following manner using commercially available angiogenesis kits (Kurabo), each including human umbilical vein endothelial cells (HUVEC) and normal human dermal fibroblasts. First, sample solutions were prepared by dissolving 2-Cl—C.OXT-A in physiological saline so as to achieve predetermined concentrations (1, 10, 100, 500 μmol/l, 1, 5, 10, 50 mmol/l). Then, the sample solutions containing 2-Cl—C.OXT-A at the predetermined concentrations respectively were added to media provided in the kits so that their concentrations became 10 v/v %. Thus, lumen formation media were prepared. The final concentrations of 2-Cl—C.OXT-A in the lumen formation media were 0.1, 1, 10, 50, 100, 500 μmol/l, 1 and 5 mmol/1.
Using each of the lumen formation media, the human umbilical vein endothelial cells (HUVEC) and the normal human dermal fibroblasts were cultured for 10 days. After the culture, the human umbilical vein endothelial cells (HUVEC) were immunostained using a lumen staining kit (for CD31 staining, Kurabo). Then, using NIH Image (image processing and analysis software), the area of a portion stained by the immunostaining (lumen area) was measured. As a control, a medium provided in the kit was used instead of the lumen formation medium to carry out the culture, and the cells were immunostained and the lumen area was measured in the same manner as in the above. Then, using the following equation (II), the relative value of lumen area in the culture using each of the lumen formation media containing 2-Cl—C.OXT-A at the predetermined concentrations was calculated.
In the present example, the relative value of lumen area was calculated in the same manner as in the lumen formation measurement in Example 1, except that the measurement was carried out with respect to four groups respectively using media Nos. 5 to 8 prepared by adding 2-Cl—C.OXT-A and PD98059 to media provided in the above-described angiogenesis kits (Kurabo) so that their concentrations became as shown in Table 2 below. In the group using the medium No. 7, the culture was conducted using the medium No. 7 from the first to third days of the culture and the medium No. 5 from the fourth to tenth days of the culture, and in the group using the medium No. 8, the culture was conducted using the medium No. 8 from the first to third days of the culture and the medium No. 6 from the fourth to tenth days of the culture.
In the present example, the relative value of lumen area was calculated in the same manner as in the lumen formation measurement in Example 1, except that the measurement was carried out with respect to six groups respectively using media Nos. 15 to 20 prepared by adding 2-Cl—C.OXT-A, VEGF (positive control), and SU5416 to media provided in the above-described angiogenesis kit (Kurabo) so that their concentrations became as shown in Table 4 below. In the group using the medium No. 16, the culture was conducted using the medium No. 16 from the first to third days of the culture and the medium No. 15 from the fourth to tenth days of the culture; in the group using the medium No. 18, the culture was conducted using the medium No. 18 from the first to third days of the culture and the medium No. 17 from the fourth to tenth days of the culture; and in the group using the medium No. 20, the culture was conducted using the medium No. 20 from the first to third days of the culture and the medium No. 19 from the fourth to tenth days of the culture.

[2] = system: Human umbilical vein endothelial cells (HUVEC); experiment: Measurement of cell proliferation (Cell Counting Kit-8); assay type: cell-based; conditions: examined in the same manner as in Example 1
Experimental: Sample solutions were prepared by dissolving 2-Cl—C.OXT-A in physiological saline so as to achieve predetermined concentrations (0.5, 1, 5, 10, 50, 100 mmol/l). Then, the sample solutions containing 2-Cl—C.OXT-A at the predetermined concentrations respectively were added to HuMedia-EB2 media (Kurabo) to which 2 v/v % inactivated fetal bovine serum (FBS) had been added so that their concentrations became 10 v/v %. Thus, cell proliferation media were prepared. The final concentrations of 2-Cl—C.OXT-A in the cell proliferation media were 50, 100, 500 μmol/l, 1, 5, and 10 mmol/1.
Human umbilical vein endothelial cells (HUVEC) suspended in a HuMedia-EG2 medium (Kurabo) were inoculated into each of gelatin-coated wells of a 96-well plate at a density of 3×10^3 cells per well, and cultured for 24 hours. 24 hours after the start of the culture, the medium was removed, and 100 μl of the cell proliferation medium was added to each well. The cells were cultured for another 48 hours. After the completion of the culture, a color reaction was caused using a Cell Counting Kit-8 (Dojindo Laboratories). 2 hours after the start of the reaction, the absorbance at 450 nm was measured using a microplate reader. As a control, a HuMedia-EB2 medium (Kurabo) to which 2 v/v % inactivated fetal bovine serum (FBS) had been added was used instead of the cell proliferation medium to carry out the culture, and a color reaction was caused and the absorbance was measured in the same manner as in the above. Then, using the following equation (I), the relative absorbance in the culture using each of the cell proliferation media containing 2-Cl—C.OXT-A at the predetermined concentrations was calculated.

[3] = system: Human umbilical vein endothelial cells (HUVEC); experiment: Measurement of cell migration (CytoSelect 24-well Cell Migration Assay); assay type: cell-based; conditions: examined in the same manner as in Example 1
Experimental: Measurement of cell migration was carried out in the following manner using CytoSelect 24-well Cell Migration Assay (CBA-100, Cell Biolabs) kits. First, sample solutions were prepared by dissolving 2-Cl—C.OXT-A in physiological saline so as to achieve predetermined concentrations (0.1, 0.5, 1 mmol/l). Then, the sample solutions containing 2-Cl—C.OXT-A at the predetermined concentrations respectively were added to HuMedia-EB2 media (Kurabo) to which 2 v/v % inactivated fetal bovine serum (FBS) had been added so that their concentrations became 10 v/v %. Thus, cell migration media were prepared. The final concentrations of 2-Cl—C.OXT-A in the cell migration media were 10, 50, and 100 μmol/l.
Human umbilical vein endothelial cells (HUVEC) were suspended in a HuMedia-EB2 medium (Kurabo) to which 2 v/v % inactivated fetal bovine serum (FBS) had been added at a density of 0.5×10^6 cells/ml. Thus, a cell suspension was prepared. 300 μl of the cell suspension was added to an upper compartment (i.e., in an insert) of a polycarbonate membrane plate provided in the kit, and 500 μl of the cell migration medium was added to a lower compartment (i.e., in a well) of the plate. Then, the cells were cultured at 37° C. for 24 hours. After the completion of the culture, the membrane on the inner bottom face of the insert was wiped out with a cotton swab to remove the cells on the membrane. Then, cells having migrated to the rear face of the membrane (the membrane on the outer bottom face of the insert) were stained using a staining solution provided in the kit, and then photographed from below the insert. After the photographing, the dye was extracted with an extracting solution provided in the kit, and the absorbance at 560 nm was measured using a microplate reader. As a control, a HuMedia-EB2 medium (Kurabo) to which 2 v/v % inactivated fetal bovine serum (FBS) had been added was used instead of the cell migration medium to carry out the culture, and the cells were stained and the absorbance was measured in the same manner as in the above. Then, using the above equation (I), the relative absorbance in the culture using each of the cell migration media containing 2-Cl—C.OXT-A at the predetermined concentrations was calculated.

SMILES	amount of pERK (ERK; Example 4, 100 μmol/l C.OXT-G, 20 minutes)	relative value of lumen area compared with control ([1]; Example 7, medium No. 8: 2-Cl—C.OXT-A 10 μmol/l + PD98059 10 nmol/l (first to third days))	increase in pERK (ERK; Example 6, medium No. 3: only PD98059 100 nmol/l)	ERK activation by 2-Cl—C.OXT-A in the presence of PD98059 (ERK; Example 6, medium No. 4: 2-Cl—C.OXT-A 100 μmol/l + PD98059 100 nmol/l)	cell proliferation promoting-activity for vascular endothelial cells [2]	lumen formation promoting-activity for vascular endothelial cells [1]	cell migration promoting-activity for vascular endothelial cells [3]
Nc1nc2c(ncn2C2CC(CO)C2CO)c(=O)[nH]1 (stereo not drawn) [C.OXT-G, 2-amino-9-[trans-trans-2,3-bis(hydroxymethyl)cyclobutyl]-3H-purine-6-one, reference compound]	not increased						
COc1cccc(-c2cc(=O)c3ccccc3o2)c1N [PD98059, reference compound]		about 1 fold	not observed	inhibited			
CC(=O)OCC1CC(n2cnc3c(=O)[nH]c(N)nc32)C1COC(C)=O (stereo not drawn) [chemical formula (17), 9-[trans-trans-2,3-bis(acetyloxymethyl)cyclobutyl]guanine]					exhibited	exhibited	exhibited
CC(=O)OCC1CC(n2c(Br)nc3c(=O)[nH]c(N)nc32)C1COC(C)=O (stereo not drawn) [chemical formula (18), 8-bromo-9-[trans-trans-2,3-bis(acetyloxymethyl)cyclobutyl]guanine]					exhibited	exhibited	exhibited
Nc1nc2c(nc(Br)n2C2CC(CO)C2CO)c(=O)[nH]1 (stereo not drawn) [chemical formula (19), 8-bromo-9-[trans-trans-2,3-bis(hydroxymethyl)cyclobutyl]guanine]					exhibited	exhibited	exhibited
CC(=O)OCC1CC(n2c(Cl)nc3c(Cl)nc(N)nc32)C1COC(C)=O (stereo not drawn) [chemical formula (20), 2-amino-6,8-dichloro-9-[trans-trans-2,3-bis(acetyloxymethyl)cyclobutyl]purine]					exhibited	exhibited	exhibited
COc1nc(N)nc2c1nc(OC)n2C1CC(CO)C1CO (stereo not drawn) [chemical formula (21), 2-amino-6,8-dimethoxy-9-[trans-trans-2,3-bis(hydroxymethyl)cyclobutyl]purine]					exhibited	exhibited	exhibited
